Biological target: T1, Est1E (uncultured bacterium, UniProt A0A345Z1H0)
T1 construct: 3 extra residues kept; no His tag; 29 kDa theoretical; purified by ion exchange and gel filtration
T1 sequence (A0A345Z1H0 1-248): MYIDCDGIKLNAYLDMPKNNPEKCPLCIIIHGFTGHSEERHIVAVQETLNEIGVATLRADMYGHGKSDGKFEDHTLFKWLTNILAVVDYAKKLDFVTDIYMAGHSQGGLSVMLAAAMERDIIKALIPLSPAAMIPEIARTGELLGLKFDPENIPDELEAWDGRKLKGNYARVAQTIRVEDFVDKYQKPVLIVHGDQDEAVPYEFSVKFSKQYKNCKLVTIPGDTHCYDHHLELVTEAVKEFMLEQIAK
Experiment: absorbance at […] nm of released 2-chloro-4-nitrophenol
Assay type: biochemical
Conditions: about […] substrate in PBST pH […] °C, […] min (assay as described for culture supernatant; also run on purified enzyme)

COc1cc(/C=C/C(=O)Oc2ccc([N+](=O)[O-])cc2Cl)ccc1O [CNPF, 2-chloro-4-nitrophenyl ferulate]
absorbance at 410 nm of released 2-chloro-4-nitrophenol: The activity of Est1E in the supernatant was measured by means of 2-chloro-4-nitrophenyl ferulate (CNPF)

Source: PMC6116501, “Improved secretory expression of lignocellulolytic enzymes in Kluyveromyces marxianus by promoter and signal sequence engineering” (Biotechnology for Biofuels, 2018)
